From patent publication US9040573B2, “Anti-fungal agent” (Nihon Nohyaku Co., Ltd., priority 2011, dated 2015)
≈ marks a conversion by molar mass, not a printed value. Read-outs that look alike come from different tables or passages of the source.

Key:
Scytalidium hyalinum = experiment: Antifungal Activity Test 2: MIC by broth microdilution method (Alamar Blue); format: cell-based; conditions: Neoscytalidium hyalinum
Procedure: (§1) The minimum inhibitory concentration (MIC) was measured by a broth microdilution method. That is, RPMI1640 medium (Sigma-Aldrich) was buffered with 0.165 M morpholine propanesulfonic acid (MOPS, Wako Pure Chemical Industries, Ltd.) to pH 7.0, and a given amount of a solution of the drug in DMSO was added thereto to prepare 2-fold dilution series within the range of 0.00098-4 μg/mL. This was added to a 96-well microplate by 100 μL, a fungal inoculum solution (100 μL, final concentration of fungi to be added: 1.0×10^4 cells/mL) was added, and the mixture was cultured at 35° C. An Alamar Blue reagent was added in advance to the culture medium (final addition concentration: 10%) and, at the time point when the Alamar Blue reagent in the drug-free growth control group changed from blue to red, the culture was discontinued and the absorbance (differential optical density at 570 nm based on 590 nm served as reference) measured. The minimum concentration of the drug that inhibited the growth of the fungus in the growth control group by 80% or more was taken as MIC. The concentration to be MIC (MIC90) in 9 strains out of the 10 strains (90%) measured was determined.
Scytalidium hyalinum strain of clinical isolate available from CBS (Netherlands) was used. The fungus was pre-cultured in an SDA medium, 0.1% (w/v) Tween 80-containing sterile saline was added to give a suspension, which was filtered through gauze to collect arthrospore. This was suspended in 0.1% (w/v) Tween 80-containing sterile saline, and added to a 20% Alamar Blue-containing medium to 2×10^4 cells/mL to give a fungal inoculum solution.
(§2) Each drug was used after dissolving in DMSO (dimethyl sulfoxide).
The test method was the same as in the aforementioned antifungal activity test 1, and the minimum concentration of the drug that inhibited the growth of the fungus in the growth control group by 80% or more was taken as MIC. The MIC range of the 4 strains measured and the geometric mean (GM) of each drug were determined.

Scytalidium dimidiatum = experiment: Antifungal Activity Test 1: MIC by broth microdilution method (Alamar Blue); format: cell-based; conditions: Neoscytalidium dimidiatum; for MIC: growth inhibited by 80% or more, read-out: MIC
Description: Scytalidium dimidiatum strain of clinical isolate obtained by separation and identification from nail or stratum corneum of patients with superficial mycosis was used. The fungi pre-cultured on an SDA medium was suspended in 0.1% (w/v) Tween 80-containing sterile saline and the suspension was filtered through gauze to collect arthrospore. This was suspended in 0.1% (w/v) Tween 80-containing sterile saline, and added to a 20% Alamar Blue-containing medium to 2×10^4 cells/mL to give a fungal inoculum solution.
as §2, §1
Reference documents for measurement method: Takako Shinoda et al.: opinion proposed by Committee for Clinical Laboratory Standards of The Japanese Society for Medical Mycology (1995-1997), Method for antifungal susceptibility testing of filamentous fungus, Medical Mycology Journal, 40: 239-257, 1999. Clinical Laboratory Standards Institute/National Committee for Clinical Laboratory Standards. Reference method for broth dilution antifungal susceptibility testing of filamentous fungus. Approved Standard M38-A2. Wayne, Pa.: National Committee for Clinical Laboratory Standards, 2008. Test Results

CCC(C)n1ncn(-c2ccc(N3CCN(c4ccc(OCC5COC(Cn6cncn6)(c6ccc(Cl)cc6Cl)O5)cc4)CC3)cc2)c1=O (stereo not shown) [ITZ, itraconazole]
MIC (Scytalidium hyalinum; clinical isolate CBS200.88, growth inhibited by 80% or more, read-out: MIC): > 4 µg/mL | MIC (Scytalidium hyalinum; clinical isolate CBS545.95, growth inhibited by 80% or more, read-out: MIC): > 4 µg/mL | MIC (Scytalidium hyalinum; clinical isolate CBS601.85, growth inhibited by 80% or more, read-out: MIC): 0.016 µg/mL (≈ 0.0227 µM) | MIC (Scytalidium hyalinum; clinical isolate CBS619.84, growth inhibited by 80% or more, read-out: MIC): > 4 µg/mL | MIC (Scytalidium hyalinum; geometric mean of the 4 strains measured, read-out: GM (geometric mean of MIC)): > 4 µg/mL | MIC (Scytalidium dimidiatum; clinical isolate 530129): > 4 µg/mL | MIC (Scytalidium dimidiatum; clinical isolate 530142): > 4 µg/mL | MIC (Scytalidium dimidiatum; clinical isolate 530251): > 4 µg/mL | MIC (Scytalidium dimidiatum; clinical isolate 530621): > 4 µg/mL | MIC (Scytalidium dimidiatum; clinical isolate 530633): > 4 µg/mL | MIC (Scytalidium dimidiatum; clinical isolate 530914): > 4 µg/mL | MIC (Scytalidium dimidiatum; clinical isolate 530946): > 4 µg/mL | MIC (Scytalidium dimidiatum; clinical isolate 530999): > 4 µg/mL | MIC (Scytalidium dimidiatum; clinical isolate 531581): > 4 µg/mL | MIC (Scytalidium dimidiatum; clinical isolate 531869): > 4 µg/mL | MIC90 (Scytalidium dimidiatum; concentration to be MIC in 9 strains out of the 10 strains (90%), read-out: MIC90): > 4 µg/mL
